The results in this text go back to patent US20010039258A1, “Active agent transport systems” (Emisphere Technologies, Inc., priority 1990, published 2001).

Read-outs that look alike come from different tables or passages of the source.

The target in one data set is rhGH (Homo sapiens, UniProt P01241). The data set is described as follows: Isothermal titration calorimetry of rhGH with perturbants. It is filed as binding. Conditions: 30° C. The protocol:
The ability of rhGh to complex with various perturbants was assessed by ITC using a Microcal Omega titrator, usually equilibrated at 30° C. The sample cell of the calorimeter was filled with degassed rhGH (usually at 0.25 mM) prepared in 50 mM phosphate buffer, pH 7.5 or 4.0. The perturbant (cyclohexanoyl chloride modified L-tyrosin (a), salicyloyl modified L-phenylalanine (b), or phenylsulfonyl-para-amino benzoic acid (c)) was then placed in the dropping syringe at 1 mM (for pH 7.5) and 2.5 mM, (for pH 4.0). Twenty to twenty-five 10 μl injections were made into rapidly mixing (400 rpm) solution with 2 minute intervals between injections.
Initial concentration of perturbant placed in the calorimeter sample cell assumed a formula weight of 200 for each perturbant. The pH of each solution was checked after dissolution, but no adjustments of the pH were required. All experiments were performed at 30° C. Initial concentration of rhGh placed in the dropping syringe assumed a molecular weight of 20,000 for rhGh. The pH of each solution was checked after dissolution, but no adjustment of the pH was required.
The heats of reaction were determined by integration of the observed peaks. To correct for heat of mixing and dilution, a control experiment was also performed under identical conditions where aliquots of the test perturbant or rhGh were added to buffer solution only.

Data set [1] concerns the target T1, α-interferon (Homo sapiens, UniProt P01563).
T1 construct: purchased Schering Plough Corp
The data set is described as follows: Isothermal titration calorimetry of perturbant complexing with α-interferon. The data set is classed as binding. Conditions: 25° C.; for result of complexing with α-interferon at pH 3: 20 mM NaAc; for n (1), # of complexed perturbant molecules: curve fitting, multiple independent sites. How it is done:
Isothermal titration calorimetry of perturbant complexing with α-interferon was performed at 25° C. at two different pH's. The buffers used were 20 mM NaPhosphate for pH 7.2 and 20 mM NaAc for pH 3.0. α-interferon solution was dialyzed before the experiment to reach the appropriate pH. Dry perturbants were weighed and diluted in dialysate.
ITC was conducted on a MicroCal OMEGA titration calorimeter (MicroCal Inc.—Northampton, Mass.). Data points were collected every 2 seconds, without subsequent filtering. α-interferon solution placed in 1.3625 mL cell was titrated using a 250 μL syringe filled with concentrated perturbant solution. A certain amount of titrant was injected every 3-5 minutes for up to 55 injections.
A reference experiment to correct for the heat of mixing of two solutions, was performed identically except that the reaction cell was filled with buffer without active agent.
Analysis of the data was performed using the software developed at the Johns Hopkins University Biocalorimetry Center.
The titration at pH 7.2 included 53 injections of 2 μL of the perturbant of Example 30 (50 mg/mL=191.6 mM (MW 261)) and α-interferon (1.3 mg/mL=0.067 mM (MW 19400)).
The titration at pH 7.2 included two runs of […] each of 5 μL of perturbant (50 mg/mL=181 mM (FW 277)) and α-interferon (2.31 mg/mL=0.119 mM, (MW 19400)).
ITC was performed according to the method of Example 24 with 40 injections of 5 μL of the perturbant benzoyl para-amino phenylbutyric acid (7.5 mg/mL=24.59 mM, (FW 305)) and α-interferon (2.5 mg/mL=0.129 mM, (MW 19400)).
Background: ITC needs no label: the signal is the heat of the interaction.

For data set [2], the target named is T1, α-interferon. The data set is described as follows: Perturbant binding DSC with α-interferon. Conditions: α-interferon 0.64 mg/ml, pH 7.2. The protocol: Perturbant binding DSC was conducted using 20 mM NaPhosphate buffer at pH 7.2. Dry perturbant was weighed out to make perturbant stock solutions. α-interferon stock was diluted in the buffer. α-interferon solution was not dialyzed prior to experiments for the purpose of having the same active concentration for the whole set.
DSC thermograms were generated with α-interferon at a concentration of 0.64 mg/ml and a perturbant (phenylsulfonyl-para-aminobenzoic acid purified to >98% (as determined by reverse phase chromatography prior to generation of the spectra)) at perturbant concentrations of 5, 10, 25 and 100 mg/ml. DSC was conducted on a DASM-4 differential scanning calorimeter interfaced to an IBM PC for automatic collection of the data. The scanning rate was 60° C./h.
The method of Example 19 was followed substituting α-interferon without perturbant. Results are illustrated in Table 9 below and FIG. 10. […]

Data set [3] can be described thus: DSC of heparin, effect of ionic strength. The data set is classed as physicochemical. The settings on record: pH 7.0. The protocol: (§1) Scanning calorimetry was performed using 5 mg 0.83 mM porcine insulin (MW 6,000) per mL in 50 mM phosphate buffer, pH 7.5. All thermograms were performed on a Microcal MC-2 scanning calorimeter equipped with the DA2 data acquisition system operated in the upscale mode at 1° C./min (up to 90° C.), and data points were collected at 20 second intervals. All scans were initiated at least 20 degrees below the observed transitions for the active agent. All thermograms were corrected for baseline subtraction and normalized for the concentration of macromolecule. According to the methods of the Johns Hopkins Biocalorimetry Center, See, for example, Ramsay et al. Biochemistry (1990) 29:8677-8693; Schon et al. Biochemistry (1989) 28:5019-5024 (1990) 29: 781-788. […]
(§2) Thermograms were corrected by subtraction of a heparin 0.05M NaCl-phosphate buffer blank, but an individual blank was not used for each NaCl concentration.

Data set [4] in a line: DSC of heparin, effect of pH. It is filed as physicochemical. How it is done:
as §1, with “All” for “Scanning calorimetry was performed using 5 mg 0.83 mM porcine insulin (MW 6,000) per mL in 50 mM phosphate buffer, pH 7.5. All”
as §2

Data set [5] in a line: DSC of heparin, effect of guanidine hydrochloride. The data set is classed as physicochemical. The protocol:
Scanning calorimetry was performed using 5 mg 0.83 mM porcine insulin (MW 6,000) per mL in 50 mM phosphate buffer, pH 7.5. All thermograms were performed on a Microcal MC-2 scanning calorimeter equipped with the DA2 data acquisition system operated in the upscale mode at 1° C./min (up to 90° C.), and data points were collected at 20 second intervals. All scans were initiated at least 20 degrees below the observed transitions for the active agent. All thermograms were corrected for baseline subtraction and normalized for the concentration of macromolecule. According to the methods of the Johns Hopkins Biocalorimetry Center, See, for example, Ramsay et al. Biochemistry (1990) 29:8677-8693; Schon et al. Biochemistry (1989) 28:5019-5024 (1990) 29: 781-788.
DSC thermograms of heparin at pH 5.0 were conducted according to the method of Example 9 using pH, GuHCl, and ionic strength as perturbants.
as §2

Sequence of rhGH (P01241 27-217): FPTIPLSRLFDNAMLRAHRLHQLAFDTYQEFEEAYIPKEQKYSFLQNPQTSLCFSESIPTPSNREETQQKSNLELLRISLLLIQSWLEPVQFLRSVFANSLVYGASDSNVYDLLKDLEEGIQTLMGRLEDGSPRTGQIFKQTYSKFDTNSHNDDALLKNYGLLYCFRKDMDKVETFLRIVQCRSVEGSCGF
T1 sequence (P01563 24-188): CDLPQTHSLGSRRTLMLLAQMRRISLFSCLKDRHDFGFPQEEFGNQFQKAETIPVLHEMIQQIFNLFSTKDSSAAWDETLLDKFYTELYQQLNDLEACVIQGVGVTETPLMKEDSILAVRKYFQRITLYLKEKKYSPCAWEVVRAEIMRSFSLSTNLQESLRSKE

`O=C(N[C@@H](Cc1ccccc1)C(=O)O)c1ccccc1O` [B, salicyloyl modified L-phenylalanine]: on rhGH (pH 4.0), the Kd amounted to 0.00161 µM, the ΔH is -35.6 kcal/mol and the ΔS is reported as −90.0 eu. Further, on rhGH (pH 7.5), the Kd is 1.11 µM, the ΔH entry was “+2.1 kcal/mol” and the ΔS entry is given as “+35.0 eu”.

As for `O=C(O)c1ccc(NS(=O)(=O)c2ccccc2)cc1` [perturbant of Example 19, phenylsulfonyl-para-aminobenzoic acid], the “result of complexing with α-interferon at pH 3” value at α-interferon [1] is on record as “precipitation of the complex out of the solution”. On α-interferon [1] (pH 7.2), the “log 10 Ka (1), Ka=association constant” value came to 2.82; the “ΔH (1)” value is on record as −114.587 cal/Mole perturbant; the “n (1), # of complexed perturbant molecules” value is 55.12. Moreover, at rhGH (pH 4.0), the Kd is 0.0267 µM, the ΔH is -1.2 kcal/mol and the ΔS was −30.0 eu. At rhGH (pH 7.5), the Kd was found to be 0.00111 µM, the ΔH entry was “+0.8 kcal/mol” and the ΔS entry is recorded as “+44.0 eu”. In addition, on α-interferon [2] (perturbant 5 mg/ml), the “Tm of α-interferon” value worked out at 64.37 °C and the “ΔH of α-interferon” value came out at 60.151 kcal/mol. Moreover, at α-interferon [2] (perturbant 10 mg/ml), the “Tm of α-interferon” value worked out at 62.3 °C and the “ΔH of α-interferon” value turned out to be 53.161 kcal/mol. On α-interferon [2] (perturbant 25 mg/ml), the “Tm of α-interferon” value amounted to 58.15 °C and the “ΔH of α-interferon” value came out at 35.393 kcal/mol. Moreover, at α-interferon [2] (perturbant 100 mg/ml), the “Tm of α-interferon” value stood at 46.18 °C and the “ΔH of α-interferon” value turned out to be 5.4393 kcal/mol.

Turning to `O=C(NC(C(=O)O)c1ccccc1)C1CCCCC1` (stereo not drawn) [perturbant of Example 22, cyclohexanoyl phenylglycine], the “result of complexing with α-interferon at pH 3” value at α-interferon [1] is “negative enthalpy”. Also, the “ΔH (1)” value on α-interferon [1] (pH 7.2) is on record as 58.5932 cal/Mole perturbant. Further, at α-interferon [1] (pH 7.2), the “n (1), # of complexed perturbant molecules” value is given as 121.0354. Further, the Kd at α-interferon [1] (pH 7.2, read-out: binding constant (Kd)) was ~1000 µM; at α-interferon [1] (pH 7.2, read-out: log 10 Ka (1), Ka=association constant (converted)), 2990 µM. Further, the “Tm of α-interferon” value on α-interferon [2] (perturbant 5 mg/ml) turned out to be 63.00 °C; at α-interferon [2] (perturbant 10 mg/ml), 59.49 °C; at α-interferon [2] (perturbant 25 mg/ml), 52.79 °C. Besides, the “ΔH of α-interferon” value at α-interferon [2] (perturbant 5 mg/ml) was 42.299 kcal/mol; at α-interferon [2] (perturbant 10 mg/ml), 43.058 kcal/mol; on α-interferon [2] (perturbant 25 mg/ml), 27.237 kcal/mol; at α-interferon [2] (perturbant 100 mg/ml) it was 0 kcal/mol.

On to Heparin, for which the ΔH in data set [3] (0.0M NaCl) is reported as 72.9 kcal/mol; in data set [3] (0.25M NaCl) it was “not present”; in data set [3] (0.50M NaCl) it was “not present”; in data set [3] (0.75M NaCl), “not present”; in data set [4] (pH 6.0) it was 232.1 kcal/mol; in data set [4] (pH 6.5, (a) domain), 213.9 kcal/mol. For the same compound, the ΔH in data set [4] (pH 6.5, (b) domain) stood at 751.9 kcal/mol; in data set [4] (pH 7.0, (a) domain), 187.1 kcal/mol; in data set [4] (pH 7.0, (b) domain) it was 136.4 kcal/mol; in data set [4] (pH 7.5) it was 499.4 kcal/mol; in data set [5] (0.5M GuHCl), 287.3 kcal/mol; in data set [5] (1.0M GuHCl), 415.0 kcal/mol. The results for the ΔH in data set [5] (1.5M GuHCl), in data set [5] (2.0M GuHCl) and in data set [5] (no GuHCl) were 1716.5 kcal/mol, 2533.7 kcal/mol and 499.4 kcal/mol, respectively. The ΔHvH in data set [3] (0.0M NaCl) is reported as 136.4 kcal/mol; in data set [4] (pH 6.0), 13.8 kcal/mol; in data set [4] (pH 6.5, printed in line (b)), 56.8 kcal/mol; in data set [4] (pH 7.0, printed in line (b)) it was 27.6 kcal/mol; in data set [4] (pH 7.5), 83.8 kcal/mol; in data set [5] (0.5M GuHCl), 170.9 kcal/mol. The ΔHvH in data set [5] (1.0M GuHCl) is listed as 97.1 kcal/mol; in data set [5] (1.5M GuHCl) it was 24.3 kcal/mol; in data set [5] (2.0M GuHCl), 19.2 kcal/mol; in data set [5] (no GuHCl), 83.8 kcal/mol. Also, the Tm (Cp, max) was 47.1 °C in data set [3] (0.0M NaCl, 20 μg/ml); 46.1 °C in data set [3] (0.25M NaCl); 41.6 °C in data set [3] (0.50M NaCl); 27.5 °C in data set [3] (0.75M NaCl); “no transition observed” in data set [3] (1.0M NaCl); 62.5 °C in data set [4] (pH 6.0, 20 μg/ml in 50 mM phosphate). The Tm (Cp, max) in data set [4] (pH 6.5, (a) domain) turned out to be 62.7 °C; in data set [4] (pH 6.5, (b) domain), 71.8 °C; in data set [4] (pH 7.0, (a) domain), 47.1 °C; in data set [4] (pH 7.0, (b) domain), 72.9 °C; in data set [4] (pH 7.5), 66.2 °C; in data set [5] (0.5M GuHCl), 50.5 °C. For the same compound, the Tm (Cp, max) in data set [5] (1.0M GuHCl) is 60.5 °C; in data set [5] (no GuHCl, 50 mM phosphate), 67.2 °C.

Regarding “cyclohexanoyl chloride modified L-tyrosine”, at rhGH (pH 4.0), the Kd is 78.1 µM, the ΔH was -1.5 kcal/mol and the ΔS is on record as −5.6 eu. Moreover, on rhGH (pH 7.5), the Kd was found to be 98.8 µM, the ΔH entry is reported as “+1.4 kcal/mol” and the ΔS result is recorded as “+23.5 eu”.
